According to the NIST ThermoML archive (doi:10.1016/j.jct.2016.10.005):

Experiment: excess molar enthalpy (molar enthalpy of mixing); xn = mol fraction of the nth substance listed
Conditions: 100 kPa, Liquid, Flow calorimetry

CC1CCCCC1 [methylcyclohexane] + CCCO
excess molar enthalpy [kcal/mol]
Conditions | 298.15 K | 313.15 K
x1 = 0.0498 | 0.0179 | 0.0239
x1 = 0.1005 | 0.0344 | 0.0466
x1 = 0.1504 | 0.0495 | –
x1 = 0.1505 | – | 0.0676
x1 = 0.2 | 0.0633 | 0.0872
x1 = 0.2504 | 0.0767 | 0.106
x1 = 0.3005 | 0.0889 | 0.123
x1 = 0.3501 | 0.1 | –
x1 = 0.3502 | – | 0.139
x1 = 0.3998 | 0.11 | 0.153
x1 = 0.4503 | 0.12 | 0.166
x1 = 0.5004 | 0.127 | –
x1 = 0.5005 | – | 0.177
x1 = 0.55 | 0.134 | 0.187
x1 = 0.5998 | 0.138 | –
x1 = 0.5999 | – | 0.191
x1 = 0.6497 | 0.14 | 0.194
x1 = 0.6995 | 0.14 | 0.193
x1 = 0.7505 | 0.137 | 0.189
x1 = 0.7996 | 0.131 | 0.181
x1 = 0.8495 | 0.121 | 0.168
x1 = 0.9002 | 0.107 | 0.148
x1 = 0.9499 | – | 0.116

C1CCCCC1 [cyclohexane] + CCCO
excess molar enthalpy [kcal/mol]
Conditions | 298.15 K | 313.15 K
x1 = 0.0503 | 0.0217 | 0.0256
x1 = 0.1005 | 0.0413 | 0.0497
x1 = 0.1499 | 0.059 | 0.0717
x1 = 0.2005 | 0.0755 | 0.0927
x1 = 0.2498 | – | 0.112
x1 = 0.2499 | 0.0903 | –
x1 = 0.3004 | – | 0.129
x1 = 0.3005 | 0.104 | –
x1 = 0.3502 | – | 0.145
x1 = 0.3503 | 0.116 | –
x1 = 0.4001 | – | 0.159
x1 = 0.4003 | 0.127 | –
x1 = 0.45 | – | 0.171
x1 = 0.4501 | 0.136 | –
x1 = 0.4997 | – | 0.181
x1 = 0.4998 | 0.143 | –
x1 = 0.5502 | – | 0.189
x1 = 0.5504 | 0.149 | –
x1 = 0.6006 | 0.152 | 0.194
x1 = 0.6503 | 0.153 | 0.196
x1 = 0.6994 | – | 0.194
x1 = 0.6995 | 0.152 | –
x1 = 0.7503 | – | 0.189
x1 = 0.8005 | 0.139 | 0.179
x1 = 0.8497 | 0.127 | 0.165
x1 = 0.9005 | 0.109 | 0.143
x1 = 0.9502 | 0.0827 | 0.11
